Values quoted from earlier work as cited in patent publication US20230165893A1, “TREATMENT OF VIRAL INFECTIONS” (SULFAGENIX, INC., priority 2020, published 2023).

Details: pure elemental sulfur, stated as a contrast, no source given

S1SSSSSSS1 [alpha-elemental sulfur, elemental alpha sulfur]
solubility in carbon disulfide (in words): completely soluble
